Measured values reported in US9089546B2, “Synergistic compositions consisting essentially of combinations of active agents selected from oridonin, wogonin, and isoliquiritigenin for the prevention of neoplasia” (ACTIVEPHYTO TECHNOLOGIES LIMITED, priority 2006, dated 2015).

Experiments:
Type in all cases: cell-based
[1] = system: A2780; test: MTT assay, second set of experiments (Experiment 4), single agents; conditions: Homo sapiens
Procedure: (§1) Inhibition of Cell-Growth and Viability […]: The MTT reagent kit was purchased from Boehringer Mannheim (Roche Diagnosis Corp, Indianapolis, Ind.) to count viable cells. […] The protocol for the cell viability assay was provided by the manufacturer and modified in our laboratory as described below: Ovarian cancer cells were seeded in 96 well microtiter plates at a concentration of 6×10^3 cells per well, in a volume of 100 μL of cell culture medium. After 24 hours, 20 μL aliquots of the compounds at various concentrations were added to the attached cells. Each concentration was plated into 3 wells to obtain mean values. To eliminate any solvent effect, 20 μL of the solvent used in the preparation of the highest concentration of the compounds (a maximum of 0.5% by volume of DMSO) was added to the control cells in each well. The plates were incubated at 37° C. in the CO2 incubator for 72 hours. At the end of day 3, the culture medium was carefully removed without disturbing the cells, and replaced by 100 μL of fresh cell medium. 10 μL of MTT reagent was added to each well and the plates were incubated again in the CO2 incubator at 37° C. for 4 hours. 100 μL of SDS solubilising reagent (from Boehringer Mannheim) was added to each well. The plate was allowed to stand overnight in the CO2 incubator and read by ELISA Reader (EL800, Bio-Tek Instruments, Inc.) at a wavelength of 570 nm. The percent cell viability was calculated according to the equation below: 100% (absorption of the control cells-absorption of the treated cells)/absorption of the control cells. A second set of experiments were carried out showing how the compounds in the formulations of the invention act in synergy with one another. The experimental results differ slightly from those reported above as the experimental work was carried out in a different laboratory and under slightly different conditions. In the second set of experiments the MTT reagent kit was purchased from Sigma-Aldridge in the UK and, due to time constraints; the cells were only incubated overnight prior to being treated with the drugs. The cell lines were also of different origin (the second set being obtained directly from Dr Marianne Poruch of the NIH, Bethesda Md., USA) and may have been subjected to different conditions during storage.

[2] = system: PTX10; test: as above; conditions: Homo sapiens, PTX10 (taxol-resistant)
Procedure: as §1

[3] = system: human ovarian cancer cell lines A2780 (sensitive) and PTX-10 (resistant to taxol); test: Antiproliferative activity, MTT cell viability assay, first set of experiments (72 h), comparison of the two cell lines; conditions: A2780 versus taxol-resistant PTX-10
Excerpt: The present investigation uses two types of cancer cells: A2780 and PTX-10. A2780 is typical of most human ovarian cancers and is not known to be drug-resistant. PTX10 is a taxol-resistant variant of A2780. These two cell types provide a model to compare the effectiveness of the compositions of the present invention against a typical ovarian human cancer where taxol would be a useful treatment and a tumour line where taxol is not useful in treatment.
Cell lines: A2780 and PTX-10 cell lines were from National Institute of Health, Bethesda, Md.
Cell Culture: Both cell lines were cultured in RPMI 1640 supplemented with 10% foetal bovine serum, L-glutamine and antibiotics according to the method of Halicka et al. (Int. J. Oncology 1:437-48, 1997). All media, supplements, and antibiotics were obtained from Life Technologies (Grand Island, N.Y.). The cultures were periodically tested for Mycoplasma infection.
To maintain asynchronous exponential growth, these adherent cells were routinely seeded at 3×10^5 in a T-75 flask and incubated at 37° C. in 5% CO2 for 5-6 days and then repassaged at a 1:10 dilution by trypsinisation (0.25% trypsin/1 mM EDTA). Morphological changes and cell counts of the control and treated cancer cells were determined by light microscopy. Only exponentially and asynchronously growing cells were used in all experiments.
Inhibition of Cell-Growth and Viability AssASYS: The MTT reagent kit was purchased from Boehringer Mannheim (Roche Diagnosis Corp, Indianapolis, Ind.) to count viable cells. […] The protocol for the cell viability assay was provided by the manufacturer and modified in our laboratory as described below: […]
The plates were incubated at 37° C. in the CO2 incubator for 72 hours. […] The plate was allowed to stand overnight in the CO2 incubator and read by ELISA Reader (EL800, Bio-Tek Instruments, Inc.) at a wavelength of 570 nm. The percent cell viability was calculated according to the equation below: 100% (absorption of the control cells−absorption of the treated cells)/absorption of the control cells. […]

IC50 [1]	SMILES	IC50 [2]	relative sensitivity of the cell lines (dose-response curves, antiproliferative activity) [3]
670 ± 230 nM	COc1c(O)cc(O)c2c(=O)cc(-c3ccccc3)oc12 [Formula III, wogonin]	590 ± 380 nM	PTX-10 cell line is slightly more sensitive
810 ± 130 nM	C=C1C(=O)[C@]23[C@H](O)[C@H]1CC[C@H]2[C@@]12CO[C@]3(O)[C@@H](O)[C@@H]1C(C)(C)CC[C@@H]2O [Formula I, oridonin]	4720 ± 3700 nM	A2780 cell line is more sensitive
2400 ± 420 nM	O=C(/C=C/c1ccc(O)cc1)c1ccc(O)cc1O [Formula V, isoliquiritigenin]	300 ± 130 nM	PTX-10 cell line is more sensitive
